Like-named read-outs stand apart in the source and are kept apart here.

One series addresses α2-adrenoceptor. The series can be described thus: Competitive radioligand binding, [3H]clonidine, rat cerebral cortex. The note with it: n.a. = no activity at 10–5 M.
A further series has as its system C57BL/6 mice. In words: Inhibition of gastric emptying (mouse model, phenol red). Type of series: in vivo. How it is done: Fifty male C57BL/6 mice (22–27 g) were housed in standard cages while maintaining a 12:12-h light/dark cycle, with food and water available ad libitum. The experimental procedures were performed from 10:00 a.m. to 14:00 p.m.
The experiment was conducted according to Miyasaka et al. and Kotańska et al., with some minor modifications. Mice were subjected to a 20 h food deprivation and a 2 h water deprivation prior to testing. The animals received a vehicle (0.25 mL/mouse) alone or along with various compounds: JP-14 (10 mg/kg b. w.), RT (5 mg/kg body weight), metformin (100 mg/kg b. w.), or loperamide (reference compound; 10 mg/kg b. w.) via gastric gavage. Following a 45 min interval, phenol red (0.5 mL, 0.05% w/v) combined with glucose (1 g/kg body weight) was administered through the same route. Additionally, each group received an intraperitoneal injection of heparin (2500 U/mouse) 20 min prior to the collection of stomach contents. Seven mice treated with the vehicle were sacrificed immediately after the phenol red administration to serve as a standard control (representing 100% phenol red in the stomach at 0 min), establishing a baseline for maximum absorbance (100%). The leftover mice were sacrificed 30 min later. The stomachs were removed and homogenized using an OMNI homogenizer (OMNI International Company, Kennesaw, GA, USA), with 10 mL of 0.1 N NaOH. To 5 mL of homogenate, 0.5 mL of 20% w/v solution of trichloroacetic acid was incorporated to precipitate the proteins. Subsequently, the samples were centrifuged at 600× g for 15 min at a temperature of 20 °C, and 0.25 mL of supernatant was mixed with 1 mL of 0.5 N NaOH to achieve maximum color intensity. The concentration of phenol red was measured using spectrophotometry, with absorbance evaluated at a wavelength of 560 nm (MuLTISKAN.GO, Thermo Fisher Scientific Inc., Waltham, MA USA). For each mouse, the percentage of gastric emptying (GE %) was calculated using the following equation:(1) GE%=(Ac0−Ab)/(Ac0−Ac30)×100% where: Ac0 is the absorbance of the control gastric sample collected immediately after dye administration, and Ac30 is the absorbance of the control gastric sample collected 30 min after dye administration, i.e., Ac0–Ac30 = 100% gastric emptying.

The subject of another series is HepG2 cells. The series can be described thus: Glucose consumption (Amplex Red assay) in HepG2 cells. The format is cell-based, human. Conditions: for increase in glucose consumption (uptake): relative to vehicle-treated cells. How it is done:
The HepG2 human hepatocellular carcinoma cell line (ATCC® HB-8065™) was cultured in DMEM supplemented with 10% FBS, 100 µg/mL streptomycin, and 100 IU/mL penicillin at 37 °C in 5% CO2. Cells were seeded in 96-well plates at a density of 10,000 cells/well and used for experiments 24 h after plating.
Stock solutions of test compounds were prepared at a concentration of 10 mM in dimethyl sulfoxide (DMSO). At least 1 mg of each substance was carefully measured and mixed with the right amount of DMSO. A series of dilutions were made in DMSO and then further diluted in phosphate-buffered saline before being introduced into the cell culture medium. Precipitation or opalescence was assessed prior to application.
The glucose uptake was measured with the Amplex® Red Glucose/Glucose Oxidase Assay Kit from Thermo Fisher Scientific, following the guidelines provided by the maker. Cell culture supernatants were collected and incubated with a reaction mix containing 100 μM Amplex® Red reagent, 0.2 U/mL horseradish peroxidase (HRP), and 1 U/mL glucose oxidase at room temperature for 30 min in the dark. Fluorescence was measured at 530 nm excitation and 590 nm emission using the POLARstar Omega plate reader (BMG Labtech).

Another series relates to 3T3-L1 cells. The series can be described thus: Lipid accumulation (AdipoRed assay) in 3T3-L1 cells. The note with it: for lipid accumulation (intracellular lipid content), reduction: 10 µM, compared to vehicle-treated controls. The format is cell-based, mouse. How it is done:
(§1) The 3T3-L1 mouse embryonic fibroblast cell line (ATCC CRL-11605) was cultured according to the standard protocol in Dulbecco’s Modified Eagle Medium (DMEM) supplemented with 10% bovine calf serum, 100 µg/mL streptomycin, and 100 IU/mL penicillin, at 37 °C in a humidified atmosphere containing 5% CO2. Cells were seeded at a density of 10,000 cells/well in collagen type I–coated (10 µg/mL) 96-well plates and allowed to attach for 24 h. Differentiation was initiated by replacing the medium with induction medium composed of DMEM, 0.5 mM 3-isobutyl-1-methylxanthine (IBMX), 1 µM dexamethasone, and 10% fetal bovine serum (FBS). After 48 h (differentiation day 2), the medium was replaced with DMEM supplemented with 10% FBS and 10 µg/mL human recombinant insulin. After an additional 24 h, the medium was replaced with DMEM supplemented with 10% bovine calf serum, 100 µg/mL streptomycin, and 100 IU/mL penicillin. The medium was refreshed every 24 h for 10 consecutive days to allow full differentiation into adipocytes.
On day 10 of differentiation, cells were treated with test compounds for 24 h. To investigate the involvement of the TAAR1 receptor, cells were pre-treated for 15 min with the selective TAAR1 antagonist RTI-7470-44 (40 nM) before compound exposure. After incubation, the culture medium was removed, and wells were gently rinsed with 200 µL PBS and refilled with 200 µL PBS. AdipoRed reagent (5 µL; Lonza) was added to each well, mixed, and incubated at room temperature for 10 min. Fluorescence was measured using the POLARstar Omega plate reader (excitation 485 nm, emission 535 nm).

Series [1] deals with multiple species TAAR1 (mouse, rat, and human). More on the design: method as in PMID 31848873. Conditions: heterologous cell lines; cited from earlier work.
Series [2] deals with 3T3-L1 adipocytes. The series can be described thus: Steatosis, HCS LipidTOX imaging in 3T3-L1 adipocytes. The format is cell-based, mouse. The procedure:
as §1
(§2) Lipid accumulation and phospholipidosis were evaluated using the HCS LipidTOX Phospholipidosis and Steatosis Detection Kit (Thermo Fisher Scientific). Cells were cultured in black, clear-bottom 96-well plates and treated as described. Next, cells were fixed with 4% paraformaldehyde (15 min), washed with PBS, and stained with LipidTOX Green Neutral Lipid Stain (for steatosis) and LipidTOX Red Phospholipidosis Detection Reagent, prepared according to the manufacturer’s instructions. Nuclei were counterstained with Hoechst 33342 (2 µg/mL). Image acquisition and quantitative analysis were performed using High Content Screening (HCS) technology on the ImageXpress XLS system (Molecular Devices). Lipid droplet and phospholipid content were quantified using automated image analysis pipelines.

Another series deals with 3T3-L1 cell line. The series can be described thus: Cell viability assay (PrestoBlue, metabolic function), 3T3-L1. The format is cell-based, mouse. Conditions: 24 h, mean. How it is done: (§3) Prior to investigating the biological activity and molecular characteristics of the test compounds in vitro, a comprehensive cytotoxicity screening was performed using HepG2 and 3T3-L1 cell lines. Two complementary assays were applied: one based on the quantification of adenylate kinase release as an indicator of cell membrane damage, and another relying on resazurin reduction to assess cellular metabolic activity. These complementary assays enable sensitive and reliable detection of cytotoxic effects across diverse cell types. This preliminary assessment was carried out to ensure that subsequent functional analyses would not be confounded by nonspecific cytotoxic effects.
(§4) Cell viability was measured using PrestoBlue reagent (Thermo Fisher Scientific, Waltham, MA, USA), following the manufacturer’s instructions. After 24 h of compound treatment, PrestoBlue reagent was added to each well at 10% of the remaining medium volume. The plate was incubated at 37 °C for 15 min, and fluorescence was measured using the POLARstar Omega plate reader (excitation 530 nm, emission 580 nm). Results were expressed as a percentage of viable cells relative to the DMSO-treated control.

Another series deals with T1, human TAAR1 (Homo sapiens, UniProt Q96RJ0).
T1 sequence (Q96RJ0 1-339): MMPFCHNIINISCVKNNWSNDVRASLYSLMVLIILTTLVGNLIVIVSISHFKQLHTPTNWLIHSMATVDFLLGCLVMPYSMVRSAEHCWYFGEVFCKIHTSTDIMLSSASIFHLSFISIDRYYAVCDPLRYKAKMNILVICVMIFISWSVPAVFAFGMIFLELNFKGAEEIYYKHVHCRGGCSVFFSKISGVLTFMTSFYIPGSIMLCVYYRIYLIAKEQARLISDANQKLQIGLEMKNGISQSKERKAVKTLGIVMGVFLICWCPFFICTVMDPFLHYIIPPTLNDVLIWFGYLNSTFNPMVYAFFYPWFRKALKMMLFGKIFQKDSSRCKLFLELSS
The series can be described thus: TAAR1 agonist activity, Hit Hunter cAMP assay. Type of series: cell-based. Conditions: cAMP accumulation; n.a. = no activity at 10–5 M; read-out: TAAR1 Ago EC50.

The test system of series [3] is 3T3-L1 adipocytes. In words: Phospholipidosis, HCS LipidTOX imaging in 3T3-L1 adipocytes. The format is cell-based, mouse. The procedure: as §1, §2
The subject of series [4] is HEPG2 cell line. Type of series: cell-based. The note with it: human, 24 h. The procedure:
as §3
(§5) The damage of cell membrane was evaluated with the ToxiLight BioAssay Kit from Lonza (Visp, Switzerland). This test is very sensitive and measures cell damage by looking at the release of adenylate kinase (AK). After 24 h of treatment, 5 µL of culture supernatant was transferred to a 384-well white plate (PerkinElmer, Singapore), followed by the addition of 20 µL of Adenylate Kinase Detection Reagent (AKDR). After a 10 min incubation at room temperature, luminescence was measured using the POLARstar Omega plate reader (BMG Labtech, Ortenberg, Germany). Results were expressed as a percentage relative to a lysed control (100% cell death).

A further series concerns 3T3L1 cell line. The format is cell-based. Conditions: mouse, 24 h. How it is done: as §3, §5
For series [5], the system named is HEPG2 cell line. The series can be described thus: Cell viability assay (PrestoBlue, metabolic function), HepG2. Type of series: cell-based, human. Conditions: 24 h, mean. How it is done: as §3, §4

`N#Cc1cc(/C=N/NC(=N)N)ccc1F` yielded a Ki at α2-adrenoceptor of 0.996 µM.
Still for that read-out and setting: the result for `COc1ccc(/C=N/NC(=N)N)cc1` [4 (JP06)] reads 1.07 ± 0.078 µM.
As to `CN(C)C(=N)N=C(N)N` [Metformin, metformin], the “inhibitory effect on gastric emptying” value in the series on C57BL/6 mice (100 mg/kg b.w.) was “about 30%”. For the same compound, the “increase in glucose consumption (uptake)” value in the series on HepG2 cells (100 µM) stood at 36%.
`CN(CCOc1ccc(CC2SC(=O)NC2=O)cc1)c1ccccn1` (stereo not drawn) [Rosiglitazone, rosiglitazone]: in the series on 3T3-L1 cells (100 µM, relative to vehicle-treated cells), the “lipid accumulation, reduction” value stood at 90%.
As for `CN(C)C(=O)C(CCN1CCC(O)(c2ccc(Cl)cc2)CC1)(c1ccccc1)c1ccccc1` [loperamide], in the series with C57BL/6 mice (intragastric, 10 mg/kg b.w.), the “percentage inhibition of gastric emptying” value is “about 55%”.
For `Clc1cccc(N2CCNCC2)c1` [mCPP, meta-chlorophenylpiperazine], the “lipid accumulation (intracellular lipid content), reduction” value in the series on 3T3-L1 cells was “significantly increased lipid accumulation”. Besides, in the series with HepG2 cells (10 µM), the “increase in glucose consumption (uptake)” value is given as “no significant changes”.
Regarding `NCC(O)c1ccc(O)cc1` (stereo not drawn) [para-octopamine], the half-maximal effective concentration (EC50) in series [1] is 2 to 20 µM.
As for `NCCc1c[nH]c2ccccc12` [tryptamine], the EC50 in [1] is 0.4 to 21 µM.
As to `NCCc1ccc(O)cc1` [tyramine], the “effect on steatosis under TAAR1 blockade” value with 3T3-L1 adipocytes [2] (10 µM + RTI-7470-44 (40 nM)) is on record as “abolished”. In addition, the “steatosis (neutral lipid accumulation)” value with 3T3-L1 adipocytes [2] (10 µM, vs vehicle) is given as “statistically significant decrease”. Moreover, the “cellular metabolic function, percentage relative to control (live cells)” value in the series on 3T3-L1 cell line (Table S5, 0.1 μM) is listed as 95%; in the series with 3T3-L1 cell line (Table S5, 1 μM), 90%; in the series on 3T3-L1 cell line (Table S5, 10 μM) it was 88%; with 3T3-L1 cell line (Table S5, 50 μM), 67%; in the series on 3T3-L1 cell line (Table S5, 100 μM), 55%; in the series on HEPG2 cell line [5] (Table S4, 0.1 μM), 101%. In addition, the “cellular metabolic function, percentage relative to control (live cells)” value came out at 98% in the series on HEPG2 cell line [5] (Table S4, 1 μM); 97% with HEPG2 cell line [5] (Table S4, 10 μM); 89% in the series on HEPG2 cell line [5] (Table S4, 50 μM); 80% with HEPG2 cell line [5] (Table S4, 100 μM). The “lipid-lowering effect under TAAR1 blockade” value in the series on 3T3-L1 cells (10 µM + RTI-7470-44 (40 nM)) is reported as “completely abolished”. For the same compound, the “lipid accumulation (intracellular lipid content), reduction” value with 3T3-L1 cells was found to be 33%. Moreover, the “glucose-stimulating effect under TAAR1 blockade” value with HepG2 cells (10 µM + RTI-7470-44 (40 nM)) is “substantially attenuated”. In the series with HepG2 cells (10 µM), the “increase in glucose consumption (uptake)” value is given as 32%. Also, the EC50 on human TAAR1 worked out at 5.87 ± 0.47 µM. For the same compound, the “effect on phospholipidosis under TAAR1 blockade” value with 3T3-L1 adipocytes [3] (10 µM + RTI-7470-44 (40 nM)) is reported as “reversed”. Also, in the series on 3T3-L1 adipocytes [3] (10 µM, vs vehicle), the “phospholipidosis (phospholipid accumulation)” value is reported as “significantly reduced”. Also, the “membrane integrity, percentage relative to control (death cells)” value with HEPG2 cell line [4] (0.1 μM) came out at 8%; in the series on HEPG2 cell line [4] (1 μM), 7%; in the series on HEPG2 cell line [4] (10 μM) it was 7%; in the series on HEPG2 cell line [4] (50 μM), 8%; in the series with HEPG2 cell line [4] (100 μM), 11%; in the series on 3T3L1 cell line (0.1 μM) it was 6%. Further, the “membrane integrity, percentage relative to control (death cells)” value in the series on 3T3L1 cell line (1 μM) is 6%; in the series with 3T3L1 cell line (10 μM), 6%; in the series on 3T3L1 cell line (50 μM) it was 6%; in the series on 3T3L1 cell line (100 μM), 8%.

Source of the values: PMC12563652 (International Journal of Molecular Sciences, 2025).
